{"source": "ChEMBL document CHEMBL4392881", "about": "“Noursamycins, Chlorinated Cyclohexapeptides Identified from Molecular Networking of Streptomyces noursei NTR-SR4” (2019)", "key": {"Bacillus subtilis [1]": {"test_system": "Bacillus subtilis", "experiment": "Antibacterial activity against Bacillus subtilis JMRC:STI:10880 assessed as diameter of clear inhibition zone by agar diffusion test (reference value: 0 millimeter)", "type": "functional"}, "Staphylococcus aureus [2]": {"test_system": "Staphylococcus aureus", "experiment": "Antibacterial activity against Staphylococcus aureus JMRC:ST:10760 assessed as diameter of clear inhibition zone by agar diffusion test (reference value: 0 millimeter)", "type": "functional"}, "Staphylococcus aureus [3]": {"test_system": "Staphylococcus aureus", "experiment": "Antibacterial activity against mulitdrug-resistant Staphylococcus aureus JMRC:ST:33793 assessed as diameter of clear inhibition zone by agar diffusion test (reference value: 0 millimeter)", "type": "functional"}, "Staphylococcus aureus [4]": {"test_system": "Staphylococcus aureus", "experiment": "Antibacterial activity against mulitdrug-resistant Staphylococcus aureus JMRC:ST:33793 assessed as diameter of colonies in inhibition zone by agar diffusion test (reference value: 0 millimeter)", "type": "functional"}, "Escherichia coli [5]": {"test_system": "Escherichia coli", "experiment": "Antibacterial activity against Escherichia coli JMRC:ST:33699 assessed as diameter of clear inhibition zone by agar diffusion test (reference value: 0 millimeter)", "type": "functional"}, "Pseudomonas aeruginosa [6]": {"test_system": "Pseudomonas aeruginosa", "experiment": "Antibacterial activity against Pseudomonas aeruginosa JMRC:ST:33772 assessed as diameter of clear inhibition zone by agar diffusion test (reference value: 0 millimeter)", "type": "functional"}, "Pseudomonas aeruginosa [7]": {"test_system": "Pseudomonas aeruginosa", "experiment": "Antibacterial activity against Pseudomonas aeruginosa JMRC:ST:337721 assessed as diameter of clear inhibition zone by agar diffusion test (reference value: 0 millimeter)", "type": "functional"}, "Enterococcus faecalis": {"test_system": "Enterococcus faecalis", "experiment": "Antibacterial activity against vancomycin-resistant Enterococcus faecalis JMRC:ST:33700 assessed as diameter of promotion of inhibition zone by agar diffusion test (reference value: 0 millimeter)", "type": "functional"}, "Mycolicibacterium vaccae [8]": {"test_system": "Mycolicibacterium vaccae", "experiment": "Antibacterial activity against Mycobacterium vaccae JMRC:STI:10670 assessed as diameter of clear inhibition zone by agar diffusion test (reference value: 0 millimeter)", "type": "functional"}, "[9]": {"test_system": "Sporobolomyces salmonicolor", "experiment": "Antifungal activity against Sporobolomyces salmonicolor JMRC:ST:35974 assessed as diameter of colonies in inhibition zone by agar diffusion test (reference value: 10 millimeter)", "type": "functional"}, "Candida albicans": {"test_system": "Candida albicans", "experiment": "Antifungal activity against Candida albicans JMRC:STI:25000 assessed as diameter of clear inhibition zone by agar diffusion test (reference value: 0 millimeter)", "type": "functional"}, "Penicillium chrysogenum [10]": {"test_system": "Penicillium chrysogenum", "experiment": "Antifungal activity against Penicillium notatum JMRC:STI:50164 assessed as diameter of clear inhibition zone by agar diffusion test (reference value: 10 millimeter)", "type": "functional"}, "Bacillus subtilis [11]": {"test_system": "Bacillus subtilis", "experiment": "Antibacterial activity against Bacillus subtilis DSM10 measured after 20 hrs", "type": "functional", "conditions": "DSM10, 20 h"}, "Escherichia coli [12]": {"test_system": "Escherichia coli", "experiment": "Antibacterial activity against Escherichia coli DSM 1116 measured after 20 hrs", "type": "functional", "conditions": "DSM 1116, 20 h"}, "Escherichia coli [13]": {"test_system": "Escherichia coli", "experiment": "Antibacterial activity against Escherichia coli BW25113 measured after 20 hrs", "type": "functional", "conditions": "BW25113, 20 h"}, "Salmonella typhimurium": {"test_system": "Salmonella typhimurium", "experiment": "Antibacterial activity against Salmonella typhimurium TA100 measured after 20 hrs", "type": "functional, Salmonella enterica subsp. enterica serovar Typhimurium", "conditions": "Salmonella enterica, TA100, 20 h"}, "Micrococcus luteus": {"test_system": "Micrococcus luteus", "experiment": "Antibacterial activity against Micrococcus luteus DSM 1790 measured after 20 hrs", "type": "functional", "conditions": "DSM 1790, 20 h"}, "Mycolicibacterium phlei": {"test_system": "Mycolicibacterium phlei", "experiment": "Antibacterial activity against Mycobacterium phlei DSM 750 measured after 20 hrs", "type": "functional", "conditions": "DSM 750, 20 h"}, "Mycolicibacterium vaccae [14]": {"test_system": "Mycolicibacterium vaccae", "experiment": "Antibacterial activity against Mycobacterium vaccae JMRC:STI:10670 assessed as diameter of colonies in inhibition zone by agar diffusion test (reference value: 0 millimeter)", "type": "functional"}, "Penicillium chrysogenum [15]": {"test_system": "Penicillium chrysogenum", "experiment": "Antifungal activity against Penicillium notatum JMRC:STI:50164 assessed as diameter of colonies in inhibition zone by agar diffusion test (reference value: 10 millimeter)", "type": "functional"}}}
{"smiles": "CC[C@@H](C)[C@@H]1NC(=O)[C@@H](CC(C)C)NC(=O)[C@@H](C(C)C)NC(=O)[C@H](Cc2c[nH]c3ccc(Cl)cc23)NC(=O)[C@@H]([C@H](O)C(N)=O)NC(=O)[C@H](CCCN)NC1=O", "values": [{"measurement": "diameter of the inhibition zone (DIZ)", "setting": "Bacillus subtilis [1]", "value": 16, "unit": "mm"}, {"measurement": "diameter of the inhibition zone (DIZ)", "setting": "Staphylococcus aureus [2]", "value": 18, "unit": "mm"}, {"measurement": "diameter of the inhibition zone (DIZ)", "setting": "Staphylococcus aureus [3]", "value": 13, "unit": "mm"}, {"measurement": "diameter of the inhibition zone (DIZ)", "setting": "Staphylococcus aureus [4]", "value": 15, "unit": "mm"}, {"measurement": "diameter of the inhibition zone (DIZ)", "setting": "Escherichia coli [5]", "value": 0, "unit": "mm"}, {"measurement": "diameter of the inhibition zone (DIZ)", "setting": "Pseudomonas aeruginosa [6]", "value": 0, "unit": "mm"}, {"measurement": "diameter of the inhibition zone (DIZ)", "setting": "Pseudomonas aeruginosa [7]", "value": 10, "unit": "mm"}, {"measurement": "diameter of the inhibition zone (DIZ)", "setting": "Enterococcus faecalis", "value": 16, "unit": "mm"}, {"measurement": "diameter of the inhibition zone (DIZ)", "setting": "Mycolicibacterium vaccae [8]", "value": 22, "unit": "mm"}, {"measurement": "diameter of the inhibition zone (DIZ)", "setting": "[9]", "value": 12, "unit": "mm"}, {"measurement": "diameter of the inhibition zone (DIZ)", "setting": "Candida albicans", "value": 0, "unit": "mm"}, {"measurement": "diameter of the inhibition zone (DIZ)", "setting": "Penicillium chrysogenum [10]", "value": 0, "unit": "mm"}, {"measurement": "MIC", "setting": "Bacillus subtilis [11]", "value": 32, "unit": "µg/mL"}, {"measurement": "MIC", "setting": "Escherichia coli [12]", "value": "≥ 64", "unit": "µg/mL"}, {"measurement": "MIC", "setting": "Escherichia coli [13]", "value": "≥ 64", "unit": "µg/mL"}, {"measurement": "MIC", "setting": "Salmonella typhimurium", "value": 32, "unit": "µg/mL"}, {"measurement": "MIC", "setting": "Micrococcus luteus", "value": 32, "unit": "µg/mL"}, {"measurement": "MIC", "setting": "Mycolicibacterium phlei", "value": 32, "unit": "µg/mL"}]}
{"smiles": "CC[C@@H](C)[C@@H]1NC(=O)[C@@H](Cc2ccccc2)NC(=O)[C@@H](C(C)C)NC(=O)[C@H](Cc2c[nH]c3ccc(Cl)cc23)NC(=O)[C@@H]([C@H](O)C(N)=O)NC(=O)[C@H](CCCN)NC1=O", "values": [{"measurement": "diameter of the inhibition zone (DIZ)", "setting": "Bacillus subtilis [1]", "value": 18, "unit": "mm"}, {"measurement": "diameter of the inhibition zone (DIZ)", "setting": "Staphylococcus aureus [2]", "value": 21, "unit": "mm"}, {"measurement": "diameter of the inhibition zone (DIZ)", "setting": "Staphylococcus aureus [3]", "value": 18, "unit": "mm"}, {"measurement": "diameter of the inhibition zone (DIZ)", "setting": "Escherichia coli [5]", "value": 10, "unit": "mm"}, {"measurement": "diameter of the inhibition zone (DIZ)", "setting": "Pseudomonas aeruginosa [6]", "value": 0, "unit": "mm"}, {"measurement": "diameter of the inhibition zone (DIZ)", "setting": "Pseudomonas aeruginosa [7]", "value": 10, "unit": "mm"}, {"measurement": "diameter of the inhibition zone (DIZ)", "setting": "Enterococcus faecalis", "value": 18, "unit": "mm"}, {"measurement": "diameter of the inhibition zone (DIZ)", "setting": "Mycolicibacterium vaccae [8]", "value": 21, "unit": "mm"}, {"measurement": "diameter of the inhibition zone (DIZ)", "setting": "Mycolicibacterium vaccae [14]", "value": 26, "unit": "mm"}, {"measurement": "diameter of the inhibition zone (DIZ)", "setting": "[9]", "value": 12, "unit": "mm"}, {"measurement": "diameter of the inhibition zone (DIZ)", "setting": "Candida albicans", "value": 0, "unit": "mm"}, {"measurement": "diameter of the inhibition zone (DIZ)", "setting": "Penicillium chrysogenum [10]", "value": 0, "unit": "mm"}, {"measurement": "MIC", "setting": "Bacillus subtilis [11]", "value": 4, "unit": "µg/mL"}, {"measurement": "MIC", "setting": "Escherichia coli [12]", "value": "≥ 64", "unit": "µg/mL"}, {"measurement": "MIC", "setting": "Escherichia coli [13]", "value": "≥ 64", "unit": "µg/mL"}, {"measurement": "MIC", "setting": "Salmonella typhimurium", "value": 16, "unit": "µg/mL"}, {"measurement": "MIC", "setting": "Micrococcus luteus", "value": 8, "unit": "µg/mL"}, {"measurement": "MIC", "setting": "Mycolicibacterium phlei", "value": 8, "unit": "µg/mL"}]}
{"smiles": "C[C@@H]1[C@H](O)[C@@H](C)/C=C/C=C/C=C/C=C/C=C/C=C/C=C/[C@H](O[C@@H]2O[C@H](C)[C@@H](O)[C@H](N)[C@@H]2O)C[C@@H]2O[C@](O)(C[C@@H](O)C[C@@H](O)[C@H](O)CC[C@@H](O)C[C@@H](O)CC(=O)O[C@H]1C)C[C@H](O)[C@H]2C(=O)O", "note": "[AMPHOTERICIN B]", "values": [{"measurement": "diameter of the inhibition zone (DIZ)", "setting": "[9]", "value": 18, "unit": "mm"}, {"measurement": "diameter of the inhibition zone (DIZ)", "setting": "Candida albicans", "value": 20, "unit": "mm"}, {"measurement": "diameter of the inhibition zone (DIZ)", "setting": "Penicillium chrysogenum [15]", "value": 19, "unit": "mm"}]}
{"smiles": "O=C(O)c1cn(C2CC2)c2cc(N3CCNCC3)c(F)cc2c1=O", "note": "[CIPROFLOXACIN]", "values": [{"measurement": "diameter of the inhibition zone (DIZ)", "setting": "Enterococcus faecalis", "value": 17, "unit": "mm"}, {"measurement": "diameter of the inhibition zone (DIZ)", "setting": "Mycolicibacterium vaccae [14]", "value": 21, "unit": "mm"}, {"measurement": "MIC", "setting": "Bacillus subtilis [11]", "value": "< 0.25", "unit": "µg/mL"}, {"measurement": "MIC", "setting": "Escherichia coli [12]", "value": "< 0.25", "unit": "µg/mL"}, {"measurement": "MIC", "setting": "Escherichia coli [13]", "value": "< 0.25", "unit": "µg/mL"}, {"measurement": "MIC", "setting": "Salmonella typhimurium", "value": "< 0.25", "unit": "µg/mL"}, {"measurement": "MIC", "setting": "Micrococcus luteus", "value": "< 0.25", "unit": "µg/mL"}, {"measurement": "MIC", "setting": "Mycolicibacterium phlei", "value": "< 0.25", "unit": "µg/mL"}]}
